Measurements published in paper PMC4556275 (Drug metabolism and pharmacokinetics, 2010).

How the values were obtained:
[1] = Metabolite profiling in HLM incubations by MRM-IDA-EPI; type: in vitro ADME, human; settings: HLM incubation, MRM-IDA-EPI method
[2] = Metabolic stability in pooled human liver microsomes; type: in vitro ADME; settings: for CLint (microsomal): 1 μM substrate, 0.5 mg/mL HLM protein, 37°C; for ER (extraction ratio) / Hepatic CL: well-stirred model, Q 1400 mL/min, fu assumed 1

SMILES	number of metabolites formed and detected [1]	CLint (microsomal) [2]	ER (extraction ratio) [2]	Hepatic CL [2]
O=C(C1CCC(F)(F)CC1)N1CC(=O)N2CCc3ccccc3C2C1 (stereo not drawn) [PZ02, 2-(4,4-difluorocyclohexyl)carbonyl-1,2,3,6,7,11b-hexahydro-4H-pyrazino(2,1-α)isoquinoline-4-one]	Nine	22.8 μl/min/mg microsomal protein	0.44	620.2 mL/min
O=C(N1CCCCC1)N1CC(=O)N2CCc3ccccc3C2C1 (stereo not drawn) [PZ07, 2-piperidinylcarbonyl-1,2,3,6,7,11b-hexa-hydro-4H-pyrazino(2,1-α)isoquinoline-4-one]	–	22.0 μl/min/mg microsomal protein	0.43	607.9 mL/min
O=C(N1CCC(F)(F)CC1)N1CC(=O)N2CCc3ccccc3C2C1 (stereo not drawn) [PZ10, 2-(4,4-difluoropiperidinyl)carbonyl-1,2,3,6,7,11b-hexa-hydro-4H-pyrazino(2,1-α)isoquinoline-4-one]	Eight	16.2 μl/min/mg microsomal protein	0.36	505.5 mL/min
